Assays:
[1] = tested on: Hsp27 phosphorylation on Ser 15, 78, 82; assay: Western blot of Hsp27 phosphorylation in EV-A71-infected RD cells; type: cell-based; settings: for inhibition of Hsp27 Ser78 phosphorylation: peptide pre-treatment 2 hours
Procedure: RD cells were treated with SB203580 at indicated concentration for 2 hours, then infected with EV-A71 at the MOI of 10 for 6 hours. Cell lysates were collected for western blot assay. Hsp27 phosphorylation on Ser 15, 78, 82 were detected by specific antibodies. GAPDH were detected as internal control.
FIGS. 10A-10K. […] (FIG. 10A) RD cells were pre-treated with peptides S78 or for 2 hours and infected with EV-A71 at the MOI of 10 for 6 hours. Cell lysates were collected for western blot assay. Hsp27 phosphorylation on Ser 15, 78, 82 were detected by specific antibodies. β-Actin were detected as internal control. (FIG. 10B) Densitometric analysis of FIG. 9A. (FIG. 10C) HEK 293T cells were pre-treated with peptides S78 or S78A at the concentration of 25 μM for 2 hours and then co-transfected with Hsp27-WT plasmid (800 ng), pIRES reporter plasmid (200 ng) and 2A^pro-expressing plasmid or 2AC110A-expressing plasmid (200 ng) for 24 h, then the luciferase activity was measured. (FIG. 10D-10E) RD cells were treated with peptides S78 or S78A and then infected with EV-A71. EV-A71 VP1 were detected. (FIG. 10F) RD cells were treated with peptides and then infected with EV-A71 at the MOI of 1 for 12 hours. The EV-A71-induced CPE was captured. (FIG. 10G-10H) Intracellular viral RNA was extracted and quantified by qPCR. (FIG. 10I) Densitometric analysis FIG. 9D-E. (FIG. 10J) RD cells were treated with peptides S78 or and then infected with EV-A71 at the MOI of 1 for 12 hours. Extracellular viral RNA was extracted and quantified by qPCR. (FIG. 10K) Viral titration was calculated by TCID50. The Statistical analyses were carried out using Student's t-test. *: p<0.05, **: p<0.01, ***: p<0.001. Data are expressed as mean ±SD.
(§1) After cell lysis in Nonidet-P40 (NP-40) buffer, the cell lysates were centrifuged, and the concentration was determined by Bradford assay (Bio-Rad). 20 μg of protein was used for 12% SDS-PAGE and transferred onto polyvinylidene fluoride membrane (PVDF) (GE, MA, USA). Following 5% bovine serum albumin (BSA) blocking for 1 hrs, the membrane was incubated with antibodies (1:1000) against Hsp27 (sc-13132), pHsp27-Ser15 (ab76313), pHsp27-Ser78 (ADI-SPA-523), pHsp27-Ser82 (ab155987), VP1 (GTX132339), β-Actin (sc-47778), hnRNP A1 (sc-32301), or GAPDH (sc-32233) overnight in 4° C. After secondary antibodies (HRP-conjugated Affinipure Goat Anti-Mouse IgG(H+L), SA00001-1, and HRP-conjugated Affinipure Goat Anti-Rabbit IgG(H+L), SA00001-2) incubation for 1 hrs, the protein was visualized with a chemiluminescence reagent (PerkinElmer, MA, USA) on Bio-Rad Chemidoc Imaging System. The protein bands were quantified by densitometry with ImageJ if necessary.
In this example, the effect of EV-A71 infection on Hsp27 phosphorylation was investigated. […] Then, the phosphorylation status of Hsp27 upon virus infection under the treatment with a p38 inhibitor was examined, as the phosphorylation of Hsp27 could be resulted from p38 signaling activation. To this purpose, the cells were first treated with p38 kinase inhibitor −SB203580 at different concentrations (0, 0.25, 0.5, 1, 2, 4, and 8 μM) and the phosphorylation level of Hsp27 upon EV-A71 infection was examined by western blot assay.

[2] = tested on: EV-A71 VP1; assay: Western blot of EV-A71 VP1 level in RD cells; type: cell-based; settings: for EV-A71 VP1 protein level (in words): indicated concentrations
Procedure: FIGS. 10A-10K. Peptide S78 inhibited EV-A71 replication and propagation. (FIG. 10A) RD cells were pre-treated with peptides S78 or for 2 hours and infected with EV-A71 at the MOI of 10 for 6 hours. Cell lysates were collected for western blot assay. Hsp27 phosphorylation on Ser 15, 78, 82 were detected by specific antibodies. β-Actin were detected as internal control. (FIG. 10B) Densitometric analysis of FIG. 9A. (FIG. 10C) HEK 293T cells were pre-treated with peptides S78 or S78A at the concentration of 25 μM for 2 hours and then co-transfected with Hsp27-WT plasmid (800 ng), pIRES reporter plasmid (200 ng) and 2A^pro-expressing plasmid or 2AC110A-expressing plasmid (200 ng) for 24 h, then the luciferase activity was measured. (FIG. 10D-10E) RD cells were treated with peptides S78 or S78A and then infected with EV-A71. EV-A71 VP1 were detected. (FIG. 10F) RD cells were treated with peptides and then infected with EV-A71 at the MOI of 1 for 12 hours. The EV-A71-induced CPE was captured. (FIG. 10G-10H) Intracellular viral RNA was extracted and quantified by qPCR. (FIG. 10I) Densitometric analysis FIG. 9D-E. (FIG. 10J) RD cells were treated with peptides S78 or and then infected with EV-A71 at the MOI of 1 for 12 hours. Extracellular viral RNA was extracted and quantified by qPCR. (FIG. 10K) Viral titration was calculated by TCID50. The Statistical analyses were carried out using Student's t-test. *: p<0.05, **: p<0.01, ***: p<0.001. Data are expressed as mean ±SD.
FIGS. 11A-11G Inhibition of EV-A71 Protein Translation and Viral Reproduction by peptide S82A. (FIG. 11A) HEK 293T cells were pre-treated with peptides NC, S78, S78A, S82A, or S78-3A at the concentration of 25 μM for 2 hours and then co-transfected with Hsp27-WT plasmid (800 ng), pIRES reporter plasmid (200 ng) and 2A^pro-expressing plasmid for 24 h, then the luciferase activity was measured. (FIG. 11B) RD cells were pre-treated with peptides NC at indicated concentrations for 2 hours and infected with EV-A71 at the MOI of 1 for 9 hours. Intracellular viral RNA was extracted and quantified by qPCR. (FIG. 11C-11E) RD cells were treated with peptides NC, S82A, or S78-3A at indicated concentrations for 2 hours and then infected with EV-A71 at the MOI of 1 for 9 hours. Cell lysates were collected for western blot assay. EV-A71 VP1 were detected. β-Actin was detected as an internal control. (FIG. 11F) Densitometric analysis of the EV-A71 VP1 level in FIG. S7C-E was quantified and normalized with β-Actin using ImageJ. (FIG. 11G) RD cells were treated with peptides S78, S78A, S82A, or S78-3A at the concentration of 25 μM for 2 hours and then infected with EV-A71 at the MOI of 0.1 for 24 hours. Viral titration was calculated. The Statistical analyses were carried out using Student's t-test. *: p<0.05, **: p<0.01, ***: p<0.001. Data are expressed as mean ±SD.
as §1

[3] = SB203580 0-8 μM for 2 hours, EV-A71 MOI 10 for 6 hours, RD cells
[4] = EV-A71 MOI 10 for 6 hours, RD cells

Row | Molecule | reduction of phosphorylation level at Ser78 (densitometry) ([1]; 8 μM, EV-A71-infected RD cells) | phosphorylation level of Hsp27 at Ser15 [1, 3] | phosphorylation level of Hsp27 at Ser82 [1, 3] | phosphorylation of Hsp27 at Ser78 [1, 3] | inhibition of Hsp27 Ser78 phosphorylation [1, 4] | reduction of VP1 level (densitometric assay) ([2]; 50 μM) | EV-A71 VP1 protein level (in words) [2] | EV-A71 VP1 protein level at 50 μM (in words) ([2]; 50 μM)
1 | C[S+]([O-])c1ccc(-c2nc(-c3ccncc3)c(-c3ccc(F)cc3)[nH]2)cc1 (stereo not drawn) [SB203580, reference compound] | over 85% | slightly decreased | slightly decreased | markedly suppressed in a dose-dependent manner | – | – | – | –
2 | Ac-RKKRRQRRRAYSRALARQLSS-NH2 [S78A] | – | – | – | – | less inhibition | about 60% | much weaker | –
3 | Ac-RKKRRQRRRAYSRALSRQLSS-NH2 [S78] | – | – | – | – | dramatically inhibited | over 99% | dramatically decreased | almost undetectable level
4 | Ac-RKKRRQRRRYSREANQPKPSPKRESGEE-NH2 [NC, reference compound] | – | – | – | – | – | – | no effect | –
